Read-outs that look alike come from different tables or passages of the source. Marks after values point to notes of the source that are not given here.
What was measured:
S. aureus MW2 = assay type: cell-based, Staphylococcus aureus; conditions: strain MW2
Method: (§1) Antibiotic sensitivity tests were performed at the University Clinic of Navarra. Antibiotics routinely used in clinic for treatment of S. aureus infections were tested by VITEK 2 system. • Growth Kinetics Analysis

S. aureus 8325 = assay type: cell-based, Staphylococcus aureus
Method: as §1

S. aureus 8325 ΔXV = experiment: Antimicrobial susceptibility test (VITEK 2 system); assay type: cell-based, Staphylococcus aureus; conditions: for Antimicrobial susceptibility (R/S) / MIC, Minimal inhibitory concentration: strain 8325 ΔXV; for Susceptibility of 8325 ΔXV mutant compared with parental strain: 8325 ΔXV vs 8325; as to Antimicrobial susceptibility (R/S): key: R: resistant; S: susceptible
Method: as §1

S. aureus MW2 ΔXV = experiment: Antimicrobial susceptibility test (VITEK 2 system); assay type: cell-based, Staphylococcus aureus; conditions: for Antimicrobial susceptibility (R/S) / MIC, Minimal inhibitory concentration: strain MW2 ΔXV; for Susceptibility of MW2 ΔXV mutant compared with parental strain: MW2 ΔXV vs MW2; as to Antimicrobial susceptibility (R/S): key: R: resistant; S: susceptible
Method: as §1

[1] = system: ArlR response regulator of the arlRS two-component system of S. aureus MW2
For Antimicrobial susceptibility (R/S) in this document: key: R: resistant; S: susceptible.

| Compound | Antimicrobial susceptibility (R/S) (S. aureus MW2) | Antimicrobial susceptibility (R/S) (S. aureus 8325; strain 8325) | Antimicrobial susceptibility (R/S) (S. aureus 8325 ΔXV) | Antimicrobial susceptibility (R/S) (S. aureus MW2 ΔXV) | also measured |
| --- | --- | --- | --- | --- | --- |
| CO/N=C(\C(=O)N[C@@H]1C(=O)N2C(C(=O)O)=C(COC(N)=O)CS[C@H]12)c1ccco1 [Cefuroxime] | R | S | S | R |  |
| CC1(C)S[C@@H]2[C@H](NC(=O)Cc3ccccc3)C(=O)N2[C@H]1C(=O)O [Bencilpenicillin] | R | R | S | R | MIC, Minimal inhibitory concentration (S. aureus 8325; strain 8325): (0.25); Susceptibility of 8325 ΔXV mutant compared with parental strain (S. aureus 8325 ΔXV): higher susceptibility; MIC, Minimal inhibitory concentration (S. aureus 8325 ΔXV): (0.12) |
| CC(=O)O[C@H]1C[C@@]2(C)[C@@H](C[C@@H](O)[C@H]3[C@@]4(C)CC[C@@H](O)[C@@H](C)[C@@H]4CC[C@@]32C)/C1=C(\CCC=C(C)C)C(=O)O [Fusidic acid] | S | S | S | S |  |
| NC[C@H]1O[C@H](O[C@H]2[C@H](O)[C@@H](O[C@H]3O[C@H](CO)[C@@H](O)[C@H](N)[C@H]3O)[C@H](N)C[C@@H]2N)[C@H](N)C[C@@H]1O [Tobramycin] | S | S | S | S |  |
| Cc1onc(-c2ccccc2Cl)c1C(=O)N[C@@H]1C(=O)N2[C@@H]1SC(C)(C)[C@@H]2C(=O)O [Cloxacillin] | R | S | S | R |  |
| CCC[C@@H]1C[C@@H](C(=O)N[C@@H]([C@H]2O[C@H](SC)[C@H](O)[C@@H](O)[C@H]2O)[C@H](C)Cl)N(C)C1 [Clindamycin] | S | S | S | S |  |
| CC1(C)S[C@@H]2[C@H](NC(=O)[C@H](N)c3ccccc3)C(=O)N2[C@H]1C(=O)O [Ampicillin] | R | R | S | R | Susceptibility of 8325 ΔXV mutant compared with parental strain (S. aureus 8325 ΔXV): higher susceptibility |
| O=C(N[C@H](CO)[C@H](O)c1ccc([N+](=O)[O-])cc1)C(Cl)Cl [Chloramphenicol] | S | S | S | S |  |
| histidine kinase of the srrAB two-component system of S. aureus MW2 (SrrB by Table 1; printed 'SrrA' in the sentence) |  |  |  |  | Protein A expression in ΔXV strain complemented with arlR plus one HK [1]: mainly GraS and to a lower level SrrA were able to activate ArlR |
| CO[C@@]1(NC(=O)Cc2cccs2)C(=O)N2C(C(=O)O)=C(COC(N)=O)CS[C@@H]21 [Cefoxitin] | R | S | S | S | Susceptibility of MW2 ΔXV mutant compared with parental strain (S. aureus MW2 ΔXV): more susceptible |
| Cc1onc(-c2ccccc2)c1C(=O)N[C@@H]1C(=O)N2[C@@H]1SC(C)(C)[C@@H]2C(=O)O [Oxacillin] | R | S | S | R | MIC, Minimal inhibitory concentration (S. aureus MW2): (≥4)^a; Susceptibility of MW2 ΔXV mutant compared with parental strain (S. aureus MW2 ΔXV): more susceptible; MIC, Minimal inhibitory concentration (S. aureus MW2 ΔXV): (2)^a |
| CC[C@H]1OC(=O)[C@H](C)[C@@H](O[C@H]2C[C@@](C)(OC)[C@@H](O)[C@H](C)O2)[C@H](C)[C@@H](O[C@@H]2O[C@H](C)C[C@H](N(C)C)[C@H]2O)[C@](C)(O)C[C@@H](C)CN(C)[C@H](C)[C@@H](O)[C@]1(C)O [Azithromycin] | S | S | S | S |  |
| Teicoplanin | S | S | S | S |  |
| C/C(=C\C(=O)OCCCCCCCCC(=O)O)C[C@@H]1OC[C@H](C[C@@H]2O[C@H]2[C@@H](C)[C@H](C)O)[C@@H](O)[C@H]1O [Mupirocin] | S | S | S | S |  |
| C[C@@H]1O[C@@H]1P(=O)(O)O [Fosfomycin] | S | S | S | S | MIC, Minimal inhibitory concentration (S. aureus 8325; strain 8325): (16)^a; Susceptibility of 8325 ΔXV mutant compared with parental strain (S. aureus 8325 ΔXV): higher susceptibility; MIC, Minimal inhibitory concentration (S. aureus 8325 ΔXV): (≤8)^a |
| ArlS histidine kinase of the arlRS two-component system of S. aureus MW2 |  |  |  |  | Protein A expression by Western blotting [1]: They first confirmed that phosphorylation of ArlR by ArlS was necessary to induce protein A expression; Protein A expression by Western blotting in ΔXV strain complemented with arlR plus one HK [1]: In addition to ArlS itself, GraS is able to restore protein A expression in ΔXV strain |
| CO[C@H]1/C=C/O[C@@]2(C)Oc3c(C)c(O)c4c(O)c(c(/C=N/N5CCN(C)CC5)c(O)c4c3C2=O)NC(=O)/C(C)=C\C=C\[C@H](C)[C@H](O)[C@@H](C)[C@@H](O)[C@@H](C)[C@H](OC(C)=O)[C@@H]1C [Rifampicin] | S | S | S | S |  |
| Quinuspristin/Dalfopristin | S | S | S | S |  |
| O=C1CN(/N=C/c2ccc([N+](=O)[O-])o2)C(=O)N1 [Nitrofurantoin] | S |  | S | S | MIC, Minimal inhibitory concentration (S. aureus MW2): (32)^a; Antimicrobial susceptibility (R/S) (S. aureus 8325): S; MIC, Minimal inhibitory concentration (S. aureus MW2 ΔXV): (≤16)^a |
| C[C@H]1COc2c(N3CCN(C)CC3)c(F)cc3c(=O)c(C(=O)O)cn1c23 [Levofloxacin] | S | S | S | S | MIC, Minimal inhibitory concentration (S. aureus MW2): (≤0.25)^a; MIC, Minimal inhibitory concentration (S. aureus MW2 ΔXV): (≤0.12)^a |
| CC(=O)OCC1=C(C(=O)O)N2C(=O)[C@@H](NC(=O)Cc3cccs3)[C@H]2SC1 [Cefalotin] | R | S | S | R |  |
| CC[C@H]1OC(=O)[C@H](C)[C@@H](O[C@H]2C[C@@](C)(OC)[C@@H](O)[C@H](C)O2)[C@H](C)[C@@H](O[C@@H]2O[C@H](C)C[C@H](N(C)C)[C@H]2O)[C@](C)(O)C[C@@H](C)C(=O)[C@H](C)[C@@H](O)[C@]1(C)O [Erithromycin] | S | S | S | S |  |
| CN(C)c1cc(NC(=O)CNC(C)(C)C)c(O)c2c1C[C@H]1C[C@H]3[C@H](N(C)C)C(O)=C(C(N)=O)C(=O)[C@@]3(O)C(O)=C1C2=O [Tigecycline] | S | S | S | S |  |
| CC(=O)NC[C@H]1CN(c2ccc(N3CCOCC3)c(F)c2)C(=O)O1 [Linezolid] | S | S | S | S | MIC, Minimal inhibitory concentration (S. aureus MW2): (2)^a; Susceptibility of MW2 ΔXV mutant compared with parental strain (S. aureus MW2 ΔXV): more susceptible; MIC, Minimal inhibitory concentration (S. aureus MW2 ΔXV): (1)^a |
| CN[C@H](CC(C)C)C(=O)N[C@H]1C(=O)N[C@@H](CC(N)=O)C(=O)N[C@H]2C(=O)N[C@H]3C(=O)N[C@H](C(=O)N[C@H](C(=O)O)c4cc(O)cc(O)c4-c4cc3ccc4O)[C@H](O)c3ccc(c(Cl)c3)Oc3cc2cc(c3O[C@@H]2O[C@H](CO)[C@@H](O)[C@H](O)[C@H]2O[C@H]2C[C@](C)(N)[C@H](O)[C@H](C)O2)Oc2ccc(cc2Cl)[C@H]1O [Vancomycin] | S | S | S | S | MIC, Minimal inhibitory concentration (S. aureus 8325; strain 8325): (1)^a; Susceptibility of 8325 ΔXV mutant compared with parental strain (S. aureus 8325 ΔXV): higher susceptibility; MIC, Minimal inhibitory concentration (S. aureus 8325 ΔXV): (≤0.5)^a |
| Gentamicin | S | S | S | S |  |
| Trimethoprim/Sulfamethoxazole | S | S | S | S |  |
| ArlS H242A (ArlS allele that keeps phosphatase activity but cannot phosphorylate ArlR) |  |  |  |  | Protein A expression by Western blotting in arlRS mutant [1]: The resulting strain showed a level of expression of protein A similar to that of the strain complemented with ArlR alone |
| CC[C@H]1OC(=O)[C@H](C)[C@@H](O[C@H]2C[C@@](C)(OC)[C@@H](O)[C@H](C)O2)[C@H](C)[C@@H](O[C@@H]2O[C@H](C)C[C@H](N(C)C)[C@H]2O)[C@](C)(OC)C[C@@H](C)C(=O)[C@H](C)[C@@H](O)[C@]1(C)O [Clarithromycin] | S | S | S | S |  |
